Data: patent US12036194B1, “Methods of administering solriamfetol to lactating women” (Axsome Malta Ltd., priority 2022, dated 2024)
“And” between values parts separate entries of the source, which are not always exact repeats. Identical values can stand only once. Counter-ions that a name gives are not always drawn.

Assay: Phase 4 single-dose study: safety and tolerability (adverse events, vital signs, 12-lead ECG, C-SSRS)
Type: in vivo, human
Conditions: for Subjects who discontinued due to AE / Subjects with Mild AE / Subjects with Moderate AE / Subjects with SAE / Subjects with an AE considered related to study drug / Subjects with an AE considered unrelated to study drug / Subjects with at least 1 AE: hydrochloride
Method: Pharmacokinetic analysis of breast milk obtained from both breasts (by pumping) was evaluated prior to dose administration and at intervals up to 72 hours postdose. Blood samples were also collected for plasma solriamfetol quantitation and PK analysis predose and at timepoints up to 72 hours postdose. Solriamfetol breast milk and plasma concentrations were measured using validated bioanalytical methods. Safety was assessed throughout the study by 12-lead ECG, vital sign measurements, the Columbia-Suicide Severity Rating Scale (C-SSRS), and the incidence of adverse events (AE).
Vital signs (blood pressure, pulse rate, temperature, and respiratory rate) were measured with the subject in a seated or supine position and resting for at least 5 minutes prior to taking the measurement. The dominant arm was used for blood pressure and pulse rate measurements. On Day 1, vital signs were collected at predose, and at approximately 2 (blood pressure and pulse) and 4 hours (blood pressure and pulse) postdose.
12-lead ECG was taken with the subject in a supine position and resting for at least 10 minutes prior to taking the measurement. On Day 1, ECGs were collected predose and at approximately 2 hours postdose.
Adverse events were monitored throughout the study by safety assessments, observations, and subject reporting, including the Safety FU telephone call 5-7 days (i.e., Days 9-11) after check-out from the study facility on Day 4, or ET.
The 12-lead ECGs were collected at Screening, Day −1 until Day 4. Single 12-lead ECG was obtained using an ECG machine that automatically calculated the heart rate and measured PR, QRS, QT, and corrected QT interval (QTc) intervals. Any abnormal safety assessments including ECG readings considered clinically significant in the medical and scientific judgment of the investigator were reported as an AE. The investigator had to review the ECG and document it in the source documents. Clinically significant abnormal ECG results reported during Screening were recorded as medical history and those reported after study drug were recorded as AEs.
Safety analyses were based on the Safety Population. The secondary endpoints for evaluating subject safety and tolerance were the incidence of reported AEs and the laboratory test results for all subjects.
Adverse events: Adverse events recorded in the electronic case report forms (eCRFs) were coded to SOC and PT using the Medical Dictionary for Regulatory Activities (MedDRA). Treatment-emergent adverse events (TEAEs) are defined as any event with onset date on or after the first dose of study drug or any ongoing event that worsened in severity after the date of the first dose of study drug or any event that was present at baseline but was subsequently considered drug-related by the investigator through the end of the study. The incidence of TEAEs were presented by severity, relationship to study drug, start and end date, seriousness, and outcome. The investigator assessed the severity and relatedness of each AE to study drug. Columbia-Suicide Severity Rating Scale (C-SSRS) data were summarized at scheduled visits and were listed. Other safety analyses were performed as appropriate.
12 Lead ECG: The number and percentage of subjects who had the following postbaseline clinically notable ECG interval abnormality was summarized: Ventricular rate >100 beats/min or ≤60 beats/min; PR interval ≥200 msec or ≤120 msec; QRS duration ≥100 msec or ≤80 msec; QT interval ≥440 msec or ≤350 msec; QTc Bazett and QTc Fredericia ≥470 msec or ≤330 msec; RR interval ≥1200 msec or ≤600 msec; and QTc Bazette and QTc Fredericia increase from study Baseline Value >30 msec. […]

[1] = Solriamfetol 150 mg single dose, N = 6
[2] = Solriamfetol 150 mg single dose, N = 6, listed as solriamfetol
[3] = any post-baseline visit/timepoint, 150 mg, N = 6

SMILES: NC(=O)OC[C@H](N)Cc1ccccc1 [Solriamfetol, (R)-2-amino-3-phenylpropyl carbamate (APC) hydrochloride]
- abnormal clinically significant ECG findings (150 mg single dose, N = 6): No abnormal clinically significant ECG findings
- number of TEAEs of mild intensity (dizziness, headache, agitation; related to study drug) (150 mg single dose, N = 6): 3 TEAEs
- number of TEAEs of moderate intensity (headache; unrelated to study drug) (150 mg single dose, N = 6): 1 TEAE
- outcome of TEAEs (150 mg single dose, N = 6): resolved
- subjects reporting suicidal ideation or event under Columbia-Classification Algorithm for Suicide Assessment (150 mg single dose, N = 6): None
- subjects with abnormal, clinically significant laboratory findings (150 mg single dose, N = 6): None
- total number of TEAEs reported (150 mg single dose, N = 6): 4 TEAEs
- Subjects who discontinued due to AE considered related to study drug [1]: 0 n (%)
- Subjects who discontinued due to AE considered unrelated to study drug [1]: 0 n (%)
- Subjects with Fatal AE [1]: 0 n (%)
- Subjects with Life-threatening AE [1]: 0 n (%)
- Subjects with SAE considered related to study drug [1]: 0 n (%)
- Subjects with SAE considered unrelated to study drug [1]: 0 n (%)
- Subjects with Severe AE [1]: 0 n (%)
- TEAE, PT Agitation [1]: 1 (16.7) n (%)
- TEAE, PT Dizziness [1]: 1 (16.7) n (%)
- TEAE, PT Headache [1]: 2 (33.3) n (%)
- TEAE, SOC Nervous system disorders [1]: 2 (33.3) n (%)
- TEAE, SOC Psychiatric disorders [1]: 1 (16.7) n (%)
- Subjects who discontinued due to AE [1]: 0 n (%)
- Subjects with Mild AE [1]: 2 (33.3) n (%)
- Subjects with Moderate AE [1]: 1 (16.7) n (%)
- Subjects with SAE [1]: 0 n (%)
- Subjects with an AE considered related to study drug [1]: 2 (33.3) n (%)
- Subjects with an AE considered unrelated to study drug [1]: 1 (16.7) n (%)
- Subjects with at least 1 AE [1]: 3 (50.0) n (%)
- Subjects who discontinued due to AE [2]: None
- Subjects with Mild AE [2]: 2 (33.3%) n (%)
- Subjects with Moderate AE [2]: 1 (16.7%) n (%)
- Subjects with SAE [2]: No SAEs
- Subjects with an AE considered related to study drug [2]: 2 (33.3%) n (%)
- Subjects with an AE considered unrelated to study drug [2]: 1 (16.7%) n (%)
- Subjects with at least 1 AE [2]: 3 (50%) n (%) and 3 n (%)
- Clinically notable Body temperature: Change in body temperature > 1.8% from the subjects baseline temperature recordings [3]: 1 (16.7) n (%)
- Clinically notable Diastolic blood pressure: Average diastolic blood pressure ≥ 95 mmHg or ≤ 60 mmHg [3]: 2 (33.3) n (%)
- Clinically notable ECG mean heart rate: Ventricular rate ≥ 100 beats/min or ≤ 60 beats/min [3]: 2 (33.3) n (%)
- Clinically notable PR interval, single beat: PR interval ≥ 200 msec or ≤ 120 msec [3]: 2 (33.3) n (%)
- Clinically notable Pulse rate: Pulse change by > 20% from the study baseline value/recordings [3]: 2 (33.3) n (%)
- Clinically notable QRS duration, single beat: QRS duration ≥ 100 msec or ≤ 80 msec [3]: 4 (66.7) n (%)
- Clinically notable QT interval, single beat: QT interval ≥ 440 msec or ≤ 350 msec [3]: 1 (16.7) n (%)
- Clinically notable Systolic blood pressure: Blood pressure change by > 20% from the study baseline value/recordings [3]: 1 (16.7) n (%)
- changes in vital sign parameters from baseline (baseline to Day 1 2 hours and 4 hours, Day 2, Day 3, Day 4): no major changes
- changes in ECG parameters from baseline (baseline to Day 1 predose and 2 hours, Day 2, Day 3, Day 4): no major changes
- overall safety and tolerability (single oral dose 150 mg, 6 healthy postpartum women): safe and well tolerated
